Source: patent US20220152100A1, “METHODS FOR CONTROLLED ACTIVATION OR ELIMINATION OF THERAPEUTIC CELLS” (Bellicum Pharmaceuticals, Inc., priority 2014, published 2022)
pEC50, pIC50: −log10 of the molar value. Where two headings read alike, the source gives them in different places. Values belong to the compound of their own block, whether it stands above or below them.

Legend:
[1] = target: FKBP12 x4 scaffold (plasmid pBP0722, pSH1-Fpk-Fpk′.LS.Fpk″.Fpk′′′.LS.HA) (Homo sapiens (Human)) (UniProt P62942); assay: cell-based or functional assay
[2] = target: CD19-CAR-FRBl2 (1st generation CD19-CAR with two tandem FRBl domains, co-expressed with iCaspase-9 from iC9-CAR(19).FRBl2); assay: cell-based or functional assay
[3] = target: FRBL x4 scaffold, not myristoylated (plasmid pBP0725, pSH1-FRBI.FRBI′.LS.FRBI″.FRBI′′′); assay: cell-based or functional assay
[4] = target: Her2-CAR-FRBl2 (1st generation Her2-CAR with two tandem FRBl domains at its carboxy terminus); assay: cell-based or functional assay
293 cells [5] = assay: SEAP assay: FRBl2-tagged CAR plus iCaspase-9, two-tiered apoptosis; format: cell-based, human
Description: FIGS. 6A and 6B provide the results of an assay of two-tiered activation of apoptosis.
As a proof of principal, two tandem FRBl domains were fused to either a 1st generation Her2-CAR or to a 1st generation CD19-CAR co-expressing inducible Caspase-9. 293 cells were transiently transfected with a constitutive reporter plasmid, SRα-SEAP, along with normalized levels of expression plasmids encoding Her2-CAR-FRBl2, iCaspase-9, Her2-CAR-FRBl2+iCasp9, iC9-CAR(19).FRBl2 (coexpressing both CD19-CAR-FRBl2 and iCaspase9), or control vector. […] After overnight incubation with drugs, SEAP activity was determined. […] This dose-dependent decrease required the presence of both the FRB-tagged CAR and the FKBP-tagged Caspase-9. […] Moreover, on- or off-target-mediated CAR clustering should increase the sensitivity of killing primarily at the site of scFv engagement.

293 cells [6] = assay: SEAP assay: iMC.FRBL / iMC.FRBL2 plus Caspase-9; format: cell-based, human; conditions: Caspase-9 with iMC.FRBL or iMC.FRBL2 and anti-HER2 CAR
Description: HEK-293 cells were transfected with 1 μg of SRα-SEAP constitutive reporter plasmid along with either negative (Neg) control, eGFP (pBP0047), CaspaCIDe (iC9/pBP0044) alone, or CaspaCIDe along with iMC.FRBL (pBP0655)+anti-HER2.CAR.Fpk2 (pBP0488) or iMC.FRBL2 (pBP0498)+anti-HER2.CAR.Fpk2. Cells were then plated with half-log dilutions of rimiducid or rapamycin and assayed for SEAP as previously described. Diminution of SEAP activity correlates with cell elimination. Schematic represents one possible rapamycin-mediated complex of signaling domains, which lead to Caspase-9 clustering and apoptosis.
To determine if multimers of FRB would still act as a recruitment scaffold to enable rapalog-mediated Caspase-9 dimerization when attached to another signaling domain, 1 or 2 FRBL domains were fused to the potent chimeric stimulatory molecule, MyD88/CD40, to derive iMC.FRBL (pBP0655) and iMC.FRBL2 (pBP0498), respectively (FIG. 9B). As an initial test, 293 cells were transiently transfected with reporter plasmid SRα-SEAP, Caspase-9, a 1st generation anti-HER2 CAR (pBP0488) and (pBP0655 or pBP0498) (FIG. 15). Control transfections contained Caspase-9 (pBP0044) alone or eGFP expression vector (pBP0047). […] Thus, heterodimerizer-mediated activation of Caspase-9 is possible in cells containing multimers of FRBL fused to distinct proteins, such as MyD88/CD40.

293 cells [7] = assay: SEAP assay: iMC (tandem FKBP) plus FRBL2-Caspase-9; format: cell-based, human; conditions: tandem FKBPs (iMC) present
Description: FIGS. 16A and 16B are line graphs showing that tandem FKBP scaffold mediates FRBL2. Caspase activation in the presence of rapalogs. FIG. 16A. HEK-293 cells were transfected with 1 μg each of SRα-SEAP reporter plasmid, Δmyr.iMC.2A-anti-CD19.CAR.CD3 (pBP0608), and FRBL2. Caspase-9 (pBP0467). […] After ON incubation, cell supernatants were assayed for SEAP activity, as previously described. FIG. 16B. Similar to the experiment described in (FIG. 16A), except that cells were transfected with a membrane-localized (myristoylated) iMC.2A-CD19.CAR.CD3ζ (pBP0609), instead of non-myristoylated Amyr.iMC.2A-CD19.CAR.CD3ζ (pBP0608).
In a second test for rapalog-mediated scaffold-based activation of Caspase-9, 293 cells were transiently transfected with SRα-SEAP reporter plasmid, plus myristoylated or non-myristoylated inducible iMC co-expressed with 1st generation anti-CD19 CAR, plus FRBL2-fused Caspase-9 (plasmid pBP0467) (FIG. 16). […] Thus, rapamcyin and analogs can activate Caspase-9 via a molecular scaffold comprised of FRB or FKBP12 domains.

293T cells = assay: SeAP reporter assay: FRBL-Caspase9 plus FKBPv12-Caspase9 heterodimerization; format: cell-based, human
Description: HEK 293T cells (5×10^5) were seeded on a 100-mm tissue culture dish in 10 mL DMEM4500, supplemented with glutamine, penicillin/streptomycin and 10% fetal calf serum. After 16-30 hours incubation, cells were transfected using Novagen's GeneJuice® protocol. Briefly, for each transfection, 0.5 mL OptiMEM was pipeted into a 1.5-mL microcentrifuge tube and 15 μL GeneJuice reagent added followed by 5 sec. vortexing. Samples were rested 5 minutes to settle the GeneJuice suspension. DNA (5 μg total) was added to each tube and mixed by pipetting up and down four times. Samples were allowed to rest for 5 minutes for GeneJuice-DNA complex formation and the suspension added dropwise to one dish of 293T cells. A typical transfection contains 1 μg SRα-SEAP (pBP0046) (3), 2 μg FRB-Caspase-9 (pBP0463) and 2 μg FKBPv12-Caspase-9 (pBP0044) (7).
24 hours following transfection (4.1), 293T cells were split to 96-well plates and incubated with dilutions of dimerizing drugs. Briefly, 100 μL media was added to each well of a 96-well flat-bottom plate. Drugs were diluted in tubes to a concentration 4× the top concentration in the gradient to be place on the plate. […] 100 μL from each drug-containing well was then transferred to the adjacent well and the cycle repeated 10 times to produce a serial two-fold step gradient. The last wells were untreated and serve as a control for basal reporter activity. […]
24 hours after drug stimulation, 96-well plates were wrapped to prevent evaporation and incubated at 65®C for 2 hours to inactivate endogenous and serum phosphatases while the heat-stable SeAP reporter remains (1, 4, 12). […] Phosphatase activity was measured by fluorescence with excitation at 355 nm and emission at 460 nm. […]
FIG. 37—Drug induced programmed cell death by homodimerization or heterodimerization of tagged caspase 9. […] Reporter activity is expressed as a percentage of the average of 8 control wells containing no drug. […]
FIG. 38—Rapalog-induced cell death switch. […] Reporter activity is expressed as a percentage of the average of 8 wells containing no drug. […]

CD3+ΔCD19+ cells = assay: CASPALLO phase 1 clinical trial: AP1903 in patients with GvHD after iCasp9+ T cells; conditions: within 24 hours
293 cells [8] = system: 293 cells
293 cells [9] = system: 293 cells; remark: listed apart in the source
[10] = target: wt FRB (K2095 T2098 W2101) (Homo sapiens, UniProt P42345+P62942); conditions: cited from earlier work
[11] = FRBL-Caspase9 plus FKBPv12-Caspase9

Chain of FRBL x4 scaffold, not myristoylated (plasmid pBP0725, pSH1-FRBI.FRBI′.LS.FRBI″.FRBI′′′) (chain, as listed by the source limits assumed): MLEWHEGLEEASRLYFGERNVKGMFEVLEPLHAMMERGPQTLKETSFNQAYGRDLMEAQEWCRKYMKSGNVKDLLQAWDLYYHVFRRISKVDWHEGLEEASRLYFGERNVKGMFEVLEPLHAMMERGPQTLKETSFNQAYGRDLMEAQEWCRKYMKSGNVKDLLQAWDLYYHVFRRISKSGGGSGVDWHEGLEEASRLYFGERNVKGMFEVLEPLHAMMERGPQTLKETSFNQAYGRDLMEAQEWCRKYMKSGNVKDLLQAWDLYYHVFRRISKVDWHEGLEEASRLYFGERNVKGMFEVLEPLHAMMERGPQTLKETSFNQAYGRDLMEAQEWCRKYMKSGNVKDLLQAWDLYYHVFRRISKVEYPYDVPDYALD

Compound: FRBL-ΔCaspase-9 fusion protein (plasmid pBP0463, pSH1-FRBL.dCaspase9.T2A)
IC50 of rapamycin or C7-isopropoxy-rapamycin for diminution of constitutive SRα-SEAP reporter activity (cell death) in transfected 293 cells [1]: 3 nM

SRα-SEAP reporter activity after overnight rapamycin in transfected 293 cells [2]: 50 % decrease
SRα-SEAP reporter activity after overnight rapamycin in transfected 293 cells [4]: 50 % decrease
Compound: FKBP12v36-ΔCaspase-9 fusion protein (iCaspase-9; plasmid pBP0044, pSH1-iCaspase9wt)
IC50 of rapamycin or C7-isopropoxy-rapamycin for diminution of constitutive SRα-SEAP reporter activity (cell death) in transfected 293 cells [3]: 3 nM

Compound: CC[C@H](C(=O)N1CCCC[C@H]1C(=O)O[C@H](CCc1ccc(OC)c(OC)c1)c1cccc(OCC(=O)NCCNC(=O)COc2cccc([C@@H](CCc3ccc(OC)c(OC)c3)OC(=O)[C@@H]3CCCCN3C(=O)[C@@H](CC)c3cc(OC)c(OC)c(OC)c3)c2)c1)c1cc(OC)c(OC)c(OC)c1 (relative stereo) [AP1903, 2-Piperidinecarboxylic acid, 1-[(2S)-1-oxo-2-(3,4,5-trimethoxyphenyl)butyl]-, 1,2-ethanedilbis[imino(2-oxo-2,1-ethanediyl)oxy-3,1-phenyleneR1R)-3-(3,4-dimethoxyphenyl)propylidene]] ester, [2S-[1(R*),2R*[S*[S*[1(R*),2R*]]]]]-(9CI)]
SEAP activity, of normal levels (293 cells [5]; iCaspase-9, overnight): about 20%
SEAP reduction / cell killing (293 cells [6]): killed by Caspase-9 homodimerization
activation of FRBL2-Caspase-9 (293 cells [7]): not activated
cell death (loss of SeAP reporter) (293T cells; FKBPv12-Caspase-9 with control vector or FRB without caspase fusion): effectively permitted homodimerization and induction of Caspase-9
cell death (loss of SeAP reporter) (293T cells; [11]): dose-dependent homodimerization of only FKBP12-Caspase9, leading to dimerization and activation of apoptosis
further reduction of CD3+ΔCD19+ cells (CD3+ΔCD19+ cells): further log reduction

Compound: CO[C@H]1C[C@@H]2CC[C@@H](C)[C@@](O)(O2)C(=O)C(=O)N2CCCC[C@H]2C(=O)O[C@H]([C@H](C)C[C@@H]2CC[C@@H](O)[C@H](OC)C2)CC(=O)[C@H](C)/C=C(\C)[C@@H](O)[C@@H](OC)C(=O)[C@H](C)C[C@H](C)/C=C/C=C/C=C/1C [rapamycin]
decrease of SEAP activity (293 cells [5]; FRB-tagged CAR and FKBP-tagged Caspase-9, overnight): ~50%
pIC50 (293 cells [8]): ~8.52
pIC50 (293 cells [9]): ~8.52

Compound: COC1CC(CC(C)C2CC(=O)C(C)C=C(C)C(O)C(OC)C(=O)C(C)CC(C)C=CC=CC=C(C)C(OC(C)C)CC3CCC(C)C(O)(O3)C(=O)C(=O)N3CCCCC3C(=O)O2)CCC1O (stereo not shown) [C7-isopropoxy-rapamycin, C7-isopropoxyrapamycin]
activation of FRBL2-Caspase-9 (293 cells [7]): activated
cell death (loss of SeAP reporter) (293T cells; [11]): dose-dependent high efficacy cell death switch

Compound: S-Butanesulfonamidorap [S-Butanesulfonamidorap (AP23050)]
pEC50 [10]: ~8.57
